Measured values published in patent US6713490B2, “3,4-dihydroquinolin-2(1H)-one compounds as NR2B receptor antagonists” (Pfizer, Inc., priority 2002, dated 2004).
Where a name gives a salt, the structure may show the parent alone.

How the values were obtained:
[1] = molecular target: NR2B (Homo sapiens, UniProt Q05586+Q13224); experiment: Functional activity (method not described); format: cell-based
[2] = molecular target: T1, NR2B subunit (Rattus norvegicus, UniProt P35439+Q00960); experiment: NR2B binding assay ([3H]-CP-98,113 competition, rat forebrain P2 membrane); conditions: 5 nM [3H]-CP-98,113, rat forebrain P2 membrane
T1 construct: Membranes were prepared by homogenization of forebrain of male CD rats; from tissue; host or cells: rat forebrain P2 membrane
T1 sequence (Q00960 27-1482, other chains not shown): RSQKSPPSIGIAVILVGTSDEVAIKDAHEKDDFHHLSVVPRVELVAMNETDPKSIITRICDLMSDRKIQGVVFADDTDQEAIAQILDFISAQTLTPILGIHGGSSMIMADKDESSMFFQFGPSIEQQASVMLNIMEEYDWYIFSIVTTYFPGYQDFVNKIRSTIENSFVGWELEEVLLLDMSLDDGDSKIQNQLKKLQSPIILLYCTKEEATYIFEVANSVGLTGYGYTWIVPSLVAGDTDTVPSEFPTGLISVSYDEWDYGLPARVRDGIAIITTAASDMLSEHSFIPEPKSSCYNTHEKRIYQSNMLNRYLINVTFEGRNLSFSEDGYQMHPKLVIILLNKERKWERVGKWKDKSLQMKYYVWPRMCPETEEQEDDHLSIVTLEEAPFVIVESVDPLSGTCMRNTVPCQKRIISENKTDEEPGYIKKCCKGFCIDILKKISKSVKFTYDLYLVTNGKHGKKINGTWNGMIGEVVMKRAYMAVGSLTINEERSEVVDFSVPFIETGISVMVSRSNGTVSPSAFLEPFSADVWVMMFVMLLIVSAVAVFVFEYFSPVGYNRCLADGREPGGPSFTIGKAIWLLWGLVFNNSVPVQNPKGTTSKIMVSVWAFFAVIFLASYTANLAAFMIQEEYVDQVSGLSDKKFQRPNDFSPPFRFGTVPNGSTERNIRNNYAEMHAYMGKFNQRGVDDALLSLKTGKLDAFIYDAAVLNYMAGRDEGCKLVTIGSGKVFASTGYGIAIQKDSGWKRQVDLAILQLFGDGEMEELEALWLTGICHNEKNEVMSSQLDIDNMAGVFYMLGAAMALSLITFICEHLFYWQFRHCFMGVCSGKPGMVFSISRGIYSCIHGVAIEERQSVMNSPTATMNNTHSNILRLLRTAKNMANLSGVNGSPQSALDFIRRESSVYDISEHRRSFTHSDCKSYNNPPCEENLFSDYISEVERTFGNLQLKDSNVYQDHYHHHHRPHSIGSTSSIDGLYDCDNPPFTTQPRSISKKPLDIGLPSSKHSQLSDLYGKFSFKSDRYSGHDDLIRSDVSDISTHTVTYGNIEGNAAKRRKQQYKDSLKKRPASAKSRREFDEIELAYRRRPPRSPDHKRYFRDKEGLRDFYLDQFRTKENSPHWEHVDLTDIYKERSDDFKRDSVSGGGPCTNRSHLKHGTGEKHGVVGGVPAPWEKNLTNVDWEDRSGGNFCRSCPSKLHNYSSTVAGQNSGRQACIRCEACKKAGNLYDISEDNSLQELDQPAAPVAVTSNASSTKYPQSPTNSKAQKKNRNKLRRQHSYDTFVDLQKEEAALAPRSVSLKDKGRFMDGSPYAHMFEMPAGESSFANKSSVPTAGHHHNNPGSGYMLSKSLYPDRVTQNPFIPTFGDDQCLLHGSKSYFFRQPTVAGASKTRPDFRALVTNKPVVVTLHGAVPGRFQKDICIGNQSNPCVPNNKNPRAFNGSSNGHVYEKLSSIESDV
Procedure: The activity of the 3,4-dihydroquinolin-2(1H)-one compounds of the present invention, as NR2B antagonists, is determined by their ability to inhibit the binding of NR2B subunit at its receptor sites employing radioactive ligands.
The NR2B antagonist activity of the 3,4-dihydroquinolin-2(1H)-one compounds is evaluated by using the standard assay procedure described in, for example, J. Pharmacol., 331, pp117-126, 1997. […] More specifically, the assay is carried out as follows.
Membranes were prepared by homogenization of forebrain of male CD rats weighing between 170˜190 g by using glass-Teflon homogenizer in 0.32 M sucrose at 4° C. […]
For the saturation assay, receptor saturation was determined by incubating [^3H]-CP-98,113 and 50 μg protein of P2 membrane for 60 minutes at room temperature in a final 100 μl of incubation buffer (50 mM Tris HCl, pH7.4). Total and non-specific bindings (in the presence of 10 μM of unlabeled CP-98,113) were determined in a range of [^3H]-CP-98113 concentrations (0.625 nM to 60 nM). […]
For the competition assay, test compounds were incubated in duplicate with 5 nM [^3H]-CP-98,113 and 50 μg protein of P2 membrane for 60 minutes at room temperature in a final 100 μl of 50 mM Tris HCl buffer (pH7.4). Nonspecific binding was determined by 10 μM of unlabeled CP-98,113 (25 μl). […]

[3] = molecular target: T2, HERG potassium channel (Homo sapiens, UniProt Q12809); experiment: Dofetilide binding assay ([3H]-dofetilide competition, membranes of HEK-293 cells expressing the HERG product)
T2 construct: expressed in transfected cells; host or cells: HEK-293
T2 sequence (Q12809 whole entry): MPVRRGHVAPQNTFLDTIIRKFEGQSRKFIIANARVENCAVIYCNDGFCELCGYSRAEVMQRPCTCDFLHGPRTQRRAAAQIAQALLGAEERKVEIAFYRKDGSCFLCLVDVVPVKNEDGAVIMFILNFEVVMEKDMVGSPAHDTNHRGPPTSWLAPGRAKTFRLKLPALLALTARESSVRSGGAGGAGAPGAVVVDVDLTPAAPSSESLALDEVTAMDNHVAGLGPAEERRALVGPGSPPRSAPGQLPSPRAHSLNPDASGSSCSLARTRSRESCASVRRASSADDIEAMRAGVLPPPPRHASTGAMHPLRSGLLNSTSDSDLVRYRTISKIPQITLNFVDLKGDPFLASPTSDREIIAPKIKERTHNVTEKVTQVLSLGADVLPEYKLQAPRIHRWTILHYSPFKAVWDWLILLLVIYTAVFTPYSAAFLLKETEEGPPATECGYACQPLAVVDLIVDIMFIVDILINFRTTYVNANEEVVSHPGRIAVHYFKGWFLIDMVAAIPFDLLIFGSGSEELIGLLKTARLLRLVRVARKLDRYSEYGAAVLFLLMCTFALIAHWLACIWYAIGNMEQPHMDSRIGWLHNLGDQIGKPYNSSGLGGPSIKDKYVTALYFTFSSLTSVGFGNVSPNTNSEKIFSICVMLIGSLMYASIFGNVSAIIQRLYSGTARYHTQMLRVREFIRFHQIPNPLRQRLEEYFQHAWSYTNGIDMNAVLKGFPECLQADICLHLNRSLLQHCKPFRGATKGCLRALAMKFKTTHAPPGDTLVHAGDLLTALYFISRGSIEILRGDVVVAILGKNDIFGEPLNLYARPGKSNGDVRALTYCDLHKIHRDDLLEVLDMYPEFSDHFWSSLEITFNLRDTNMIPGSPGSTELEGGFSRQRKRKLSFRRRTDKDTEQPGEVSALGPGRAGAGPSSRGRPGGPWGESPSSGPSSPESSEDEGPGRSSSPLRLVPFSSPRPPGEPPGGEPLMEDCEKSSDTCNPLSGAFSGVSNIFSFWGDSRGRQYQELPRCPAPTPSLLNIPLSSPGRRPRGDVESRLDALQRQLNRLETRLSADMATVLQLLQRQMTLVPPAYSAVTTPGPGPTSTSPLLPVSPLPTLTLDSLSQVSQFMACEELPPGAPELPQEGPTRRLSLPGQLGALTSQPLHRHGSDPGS

Sequence of NR2B (Q13224 27-1484, species assumed, other chains not shown): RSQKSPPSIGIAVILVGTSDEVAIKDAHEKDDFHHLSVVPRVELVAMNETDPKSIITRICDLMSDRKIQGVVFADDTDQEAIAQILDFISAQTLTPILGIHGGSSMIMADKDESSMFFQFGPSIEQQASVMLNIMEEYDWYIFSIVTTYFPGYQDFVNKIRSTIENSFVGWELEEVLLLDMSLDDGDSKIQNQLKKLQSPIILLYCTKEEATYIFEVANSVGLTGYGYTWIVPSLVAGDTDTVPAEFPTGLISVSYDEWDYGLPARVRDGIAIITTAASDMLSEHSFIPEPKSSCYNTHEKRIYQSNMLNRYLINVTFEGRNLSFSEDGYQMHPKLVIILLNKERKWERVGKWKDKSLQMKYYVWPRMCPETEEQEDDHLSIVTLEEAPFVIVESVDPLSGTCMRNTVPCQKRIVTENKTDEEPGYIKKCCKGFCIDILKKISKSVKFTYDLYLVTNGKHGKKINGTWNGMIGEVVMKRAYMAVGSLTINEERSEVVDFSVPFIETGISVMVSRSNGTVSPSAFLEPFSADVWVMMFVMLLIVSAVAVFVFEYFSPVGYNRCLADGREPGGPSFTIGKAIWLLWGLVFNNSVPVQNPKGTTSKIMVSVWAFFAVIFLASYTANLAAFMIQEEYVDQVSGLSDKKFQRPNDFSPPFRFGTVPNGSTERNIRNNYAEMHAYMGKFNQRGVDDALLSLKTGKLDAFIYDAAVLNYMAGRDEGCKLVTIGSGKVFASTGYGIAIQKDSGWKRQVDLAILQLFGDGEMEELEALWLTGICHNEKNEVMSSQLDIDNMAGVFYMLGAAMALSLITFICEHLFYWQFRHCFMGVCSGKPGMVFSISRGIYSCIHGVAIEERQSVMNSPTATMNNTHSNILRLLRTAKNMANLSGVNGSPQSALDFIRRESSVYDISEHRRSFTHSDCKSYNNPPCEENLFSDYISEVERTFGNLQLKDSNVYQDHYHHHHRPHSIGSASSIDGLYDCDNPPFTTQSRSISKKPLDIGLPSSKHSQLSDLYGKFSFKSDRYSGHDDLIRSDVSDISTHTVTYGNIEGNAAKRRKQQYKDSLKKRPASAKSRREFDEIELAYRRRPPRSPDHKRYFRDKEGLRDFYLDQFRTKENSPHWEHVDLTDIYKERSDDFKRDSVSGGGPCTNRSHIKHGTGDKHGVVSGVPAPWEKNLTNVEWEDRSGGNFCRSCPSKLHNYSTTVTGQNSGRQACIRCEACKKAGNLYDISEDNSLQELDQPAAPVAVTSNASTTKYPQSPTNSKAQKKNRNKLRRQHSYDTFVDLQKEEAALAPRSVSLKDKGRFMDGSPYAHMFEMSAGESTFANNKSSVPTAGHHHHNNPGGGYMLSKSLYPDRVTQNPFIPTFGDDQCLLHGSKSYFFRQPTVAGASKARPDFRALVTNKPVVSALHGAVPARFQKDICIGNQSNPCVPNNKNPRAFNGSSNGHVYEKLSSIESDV

Row | Structure (SMILES) | IC50 [1] [nM] | Ki [2] [nM] | melting point | also measured
1 | C[C@H]([C@H](O)c1ccc2c(c1)CCC(=O)N2)N1CCC(O)(c2ccccc2)CC1 | 22.4 |  |  | 
2 | C[C@H]([C@H](O)c1ccc2c(c1)CCC(=O)N2)N1CCC(O)(c2ccc(F)cc2)CC1 [reference compound] |  | 7 |  | 
3 | Cc1cccc(C2(O)CCN(CC(O)c3ccc4c(c3)CCC(=O)N4)CC2)c1 (stereo not drawn) (as salt: mesylate) [Example 4, 6-[1-Hydroxy-2-[4-hydroxy-4-(3-methylphenyl)piperidin-1-yl]ethyl]-3,4-dihydroquinolin-2(1H)-one mesylate] |  |  | 98 to 100 °C (dec.) | 
4 | CS(=O)(=O)O.O=C1CCc2cc([C@@H](O)CN3CCC(O)(c4cccc(F)c4)CC3)ccc2N1 |  |  | 180 to 182 °C | 
5 | O=C1CCc2cc([C@@H](O)CN3CCC(O)(c4cccc(F)c4)CC3)ccc2N1 | 11.9 | 3.5 |  | Ki ([3]; 5 nM [3H]-dofetilide, HERG homogenate of HEK-293 cells): 8300 nM; TI (Defetilide/NR2B) ([3]; TI = Dofetilide Binding Ki [μM]/NR2B Binding Ki [nM] x 1000): 2400
6 | COc1cccc(C2(O)CCN(CC(O)c3ccc4c(c3)CCC(=O)N4)CC2)c1 (stereo not drawn) (as salt: hydrochloride) [Example 2, 6-{1-Hydroxy-2-[4-hydroxy-4-(3-methoxyphenyl)-1-piperidinyl]ethyl}-3,4-dihydroquinolin-2(1H)-one Hydrochloride] |  |  | 246.9 °C | 
